Target: PI3-kinase p110-alpha/p85-alpha (Homo sapiens, UniProt P42336)
Test: Inhibition of PI3 kinase p110alpha/p85-alpha complex
Assay type: protein-complex assay

PI3-kinase p110-alpha/p85-alpha, sequence (P27986 whole entry): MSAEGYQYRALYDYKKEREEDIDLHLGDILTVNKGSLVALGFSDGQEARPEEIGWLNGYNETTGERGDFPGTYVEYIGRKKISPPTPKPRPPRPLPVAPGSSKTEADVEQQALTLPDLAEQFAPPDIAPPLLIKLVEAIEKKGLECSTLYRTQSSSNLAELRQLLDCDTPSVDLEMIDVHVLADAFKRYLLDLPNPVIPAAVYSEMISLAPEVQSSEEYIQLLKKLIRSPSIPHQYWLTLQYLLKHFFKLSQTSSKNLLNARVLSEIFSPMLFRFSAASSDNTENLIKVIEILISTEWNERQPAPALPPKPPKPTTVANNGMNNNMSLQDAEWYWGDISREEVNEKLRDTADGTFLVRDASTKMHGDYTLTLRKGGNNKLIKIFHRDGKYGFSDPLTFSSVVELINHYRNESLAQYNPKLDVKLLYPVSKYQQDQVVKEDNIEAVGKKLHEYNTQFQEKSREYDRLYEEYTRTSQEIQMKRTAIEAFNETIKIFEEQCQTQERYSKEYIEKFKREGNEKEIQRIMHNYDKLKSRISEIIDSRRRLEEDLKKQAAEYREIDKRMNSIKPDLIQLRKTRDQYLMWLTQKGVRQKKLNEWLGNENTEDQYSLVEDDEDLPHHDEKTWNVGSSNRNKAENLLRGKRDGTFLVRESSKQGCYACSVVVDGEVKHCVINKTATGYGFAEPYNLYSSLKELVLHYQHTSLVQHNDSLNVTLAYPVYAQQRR
PI3-kinase p110-alpha/p85-alpha, sequence (P42336 whole entry): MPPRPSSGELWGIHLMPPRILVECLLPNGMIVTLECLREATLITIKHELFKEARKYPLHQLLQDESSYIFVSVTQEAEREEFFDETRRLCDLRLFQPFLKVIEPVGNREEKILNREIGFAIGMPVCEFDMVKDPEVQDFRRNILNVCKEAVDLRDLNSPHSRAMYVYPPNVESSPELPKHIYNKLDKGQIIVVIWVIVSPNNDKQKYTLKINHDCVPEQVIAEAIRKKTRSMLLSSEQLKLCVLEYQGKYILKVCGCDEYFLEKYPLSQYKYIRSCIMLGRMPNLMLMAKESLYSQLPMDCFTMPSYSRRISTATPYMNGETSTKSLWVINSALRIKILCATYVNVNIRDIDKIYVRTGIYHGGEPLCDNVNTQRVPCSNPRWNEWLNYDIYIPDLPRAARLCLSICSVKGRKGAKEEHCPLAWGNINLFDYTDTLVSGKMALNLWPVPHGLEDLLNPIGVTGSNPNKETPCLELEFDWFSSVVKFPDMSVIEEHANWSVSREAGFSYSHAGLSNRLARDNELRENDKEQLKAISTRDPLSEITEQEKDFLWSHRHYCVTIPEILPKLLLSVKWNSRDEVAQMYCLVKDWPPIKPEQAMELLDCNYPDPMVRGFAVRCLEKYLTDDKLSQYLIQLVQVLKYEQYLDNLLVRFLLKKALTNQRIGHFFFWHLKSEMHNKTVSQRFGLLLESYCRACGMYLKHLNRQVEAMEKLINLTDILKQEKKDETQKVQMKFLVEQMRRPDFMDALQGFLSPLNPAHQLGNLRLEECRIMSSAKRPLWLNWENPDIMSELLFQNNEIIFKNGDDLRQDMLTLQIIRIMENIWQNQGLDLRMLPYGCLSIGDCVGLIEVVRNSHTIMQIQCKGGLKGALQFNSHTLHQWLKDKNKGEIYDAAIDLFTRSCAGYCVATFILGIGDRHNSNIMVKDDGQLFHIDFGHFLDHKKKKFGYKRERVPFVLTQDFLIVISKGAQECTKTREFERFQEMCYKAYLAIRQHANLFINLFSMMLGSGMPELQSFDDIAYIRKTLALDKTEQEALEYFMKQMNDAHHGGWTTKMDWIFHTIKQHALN

IC50 [nM] | SMILES
9.6 | CN(CC(=O)O[C@@H]1CC(=O)c2coc3c2[C@@]1(C)c1ccc2c(c1C3=O)CCC2=O)c1ccc([N+](=O)[O-])c2nonc12
695 | COC[C@H]1OC(=O)c2coc3c2[C@@]1(C)C1=C(C3=O)C2CC[C@H](OC(=O)Cc3cc(=O)oc4cc(N(C)C)ccc34)[C@@]2(C)C[C@H]1OC(C)=O (stereo partly specified)
225 | COC[C@H]1OC(=O)c2coc3c2[C@@]1(C)C1=C(C3=O)C2CC[C@H](OC(=O)CN(C)c3ccc([N+](=O)[O-])c4nonc34)[C@@]2(C)C[C@H]1OC(C)=O (stereo partly specified)
0.7 | COC[C@H]1OC(=O)c2coc3c2[C@@]1(C)C1=C(C3=O)C2CCC(=O)[C@@]2(C)C[C@H]1OC(=O)CN(C)c1ccc([N+](=O)[O-])c2nonc12 (stereo partly specified)
1.9 | CN(C)c1ccc2c(CC(=O)O[C@@H]3CC(=O)c4coc5c4[C@@]3(C)c3ccc4c(c3C5=O)CCC4=O)cc(=O)oc2c1
10.1 | COC[C@H]1OC(=O)c2coc3c2[C@@]1(C)C1=C(C3=O)C2CCC(=O)[C@@]2(C)C[C@H]1OC(=O)Cc1cc(=O)oc2cc(N(C)C)ccc12 (stereo partly specified)

From ChEMBL document CHEMBL1146989 (Bioorg Med Chem Lett, 2006)
